US20180214582A1, “METHOD FOR DIAGNOSING CARCINOMAS USING IRGD AND MAGENTIC RESONANCE TOMOGRAPHY (MRT)” (Albrecht Piiper, priority 2015, published 2018)

Tests used:
HCCs in TGFα/c-myc mice [1] = assay: Gd-DTPA-enhanced MRI with and without peptide in TGFα/c-myc mice with HCC; assay type: in vivo; conditions: for contrast of HCC tumors in the liver in Gd-DTPA-enhanced MRI: T1-weighted 3T MRI
Description: (§1) Male TGFα/c-myc bitransgenic mice were created by crossing homozygous metallothionein/TGFα and albumin/c-myc single-transgenic mice in a CD13B6CBA background as described (Murakami et al., 1993; Haupenthal et al., 2012). After weaning, the animals were given ZnCl2 by way of the drinking water to induce tumors via the expression of TGFα. Starting at an age of 20 weeks, the TGFα/c-myc animals underwent a Primovist-enhanced MRI scan in a 3T MRI Scanner (Siemens 113 Magnetom Trio, Siemens Medical Solutions) as described (Haupenthal et al., 2012; Watcharin et al., 2015; Korkusuz et al., 2013).
So as to determine the effect of iRGD on the Gd-DTPA-enhanced MRI in the HCC, TGFα/c mice with HCC according to a prior Gd-EOB-DTPA (Primovist)-enhanced MRI one week earlier, or nude mice with HepG2 or Huh7 tumors, were included in the experiments. The mice were anesthetized by way of intraperitoneal injection of ketamine (70 mg/kg body weight) and xylazine (10 mg/kg body weight), followed by a basal T1-weighted MRI. Directly thereafter, a Gd-DTPA-enhanced MRI was conducted (Haupenthal et al., 2012). Twelve to 24 hours later, either iRGD or the RGD control peptide was injected ([…] each via the tail vein), followed by a basal and a Gd-DTPA-enhanced MRI (Watcharin et al., 2015). For the quantitative analysis of the MRI data, the signal intensities in user defined “regions of interest” (ROI) were used (Korkusuz et al., 2013). ROIs were placed in the liver and in the tumor tissue. The changes in the signal intensities were ascertained by subtraction of the pre-contrast value from those after the administration of Gd-DTPA. The changes in the signal intensities of the tumors and the livers due to iRGD or the RGD control peptide were indicated as multiples of the values of the Gd-DTPA MRI with prior injection of PBS.
It was examined whether the tumor-permeabilizing effect of iRGD can already be detected by a Gd-DTPA-enhancing MRI, a widely used clinical procedure, in TGFα/c-myc mice with endogenous HCC. For this purpose, TGFα/c-myc mice with HCCs discovered one week prior according to Gd-EOB-DTPA-enhanced MRI were used. […] 12 to 24 hours later, the mice were administered iRGD or the RGD control peptide, followed by another Gd-DTPA-enhanced MRI.
TGFα/c-myc mice in which HCCs had been detected one week prior by way of Gd-EOB-DTPA-enhanced MRI were anesthetized, followed by a basal T1-weighted MRI, and a Gd-DTPA-enhanced MRI directly thereafter. 12 to 24 hours later, either iRGD or RGD control peptide (con. peptide) was injected (100 μL each via the tail vein, 4 mmol/kg) into the same animals, followed by a basal MRI and a Gd-DTPA-enhanced MRI. A. Gd-DTPA-enhanced MRI of TGFα/c-myc mice with HCC (left), followed by an injection of iRGD and another Gd-DTPA-enhanced MRI 12 hours thereafter. Arrows mark the tumor.
B. quantitative analysis of the MRI data. Values are mean values±SD; n=12.

HepG2 xenotransplants [2] = assay: Doxorubicin tissue concentration after i.v. peptide in nude mice with HepG2 xenotransplants; assay type: in vivo; conditions: nude mice with subcutaneous HepG2 xenotransplants; peptide 4 mmol/kg i.v., doxorubicin 20 mg/kg iv
Method: HepG2- and Huh7 cells (ATCC and RIKEN BioResource Center) were cultivated in DMEM with 10% FBS and penicillin/streptomycin (Life Technologies). 5 million cells in 100 μL PBS were injected into the sides of NMRI Foxn1 nude mice (Harlan Laboratories B.V.). Four weeks later the mice were assigned to the test groups. Furthermore, the effect of iRGD on the tissue concentrations of intravenously applied doxorubicin, a tumor therapeutic agent that can be detected due to the inherent fluorescence in tissue sections and tissue extracts, in the TGFα/c-myc and in the HepG2 xenotransplant HCC mouse model was analyzed. […] The control peptide had no effects on the doxorubicin level in any of the tissues. TGFα/c-myc mice with radiologically verified HCCs (A) or nude mice with subcutaneous HepG2 xenotransplants (B) were intravenously injected with 4 mmol/kg iRGD or control peptide (each in PBS), or treated with PBS alone, followed by a doxorubicin (20 mg/kg iv) injection 10 minutes later. The tissues were collected another 30 minutes later and stored, and the doxorubicin concentration was determined. The values are mean values±SD; n=5 to 6. Asterisks indicate a significant difference (**P<0.01; ***P<0.001).

HCCs in TGFα/c-myc mice [3] = assay: Evans blue accumulation after i.v. peptide in TGFα/c-myc mice with endogenous HCC; assay type: in vivo; conditions: peptide 4 mmol/kg i.v., then Evans blue; for concentration of Evans blue in normal tissue (liver, kidney, spleen and lung): photometry; for Evans blue quantity in the tumors compared to HCCs of mice injected with PBS or control peptide: tissues 30 minutes later, photometric quantification
Description: as §1
So as to examine whether intravenously applied iRGD increases the permeability of the HCC, the effect of intravenously applied iRGD on the levels of co-injected Evans blue, an albumin-binding dye, in TGFα/c-myc mice with endogeneous HCCs according to a Gd-EOB-DTPA-enhanced MRI were analyzed. For this purpose, the mice with HCC were intravenously injected with iRGD, an RGD control peptide without a CendR motif, or PBS, followed by the injection of Evans blue […]. Another 30 minutes later, the animals were terminally perfused.
TGFα/c-myc mice with MRI-verified HCCs (A) or mice with subcutaneous HepG2 (B) or Huh7 xenotransplants (C) were intravenously injected with 4 mmol/kg iRGD or control peptide (each in PBS), or PBS was injected alone, followed by an injection of EB 5 minutes later. The tissues were harvested after another 30 minutes. The EB accumulation in the tissues was determined by way of photometry. The data involves mean values±SD; n=4 to 5. Asterisks indicate a significant difference (* P<0.05; […]; *** P<0.001). n.s., not significant.

HCCs in TGFα/c-myc mice [4] = assay: Doxorubicin tissue concentration after i.v. peptide in TGFα/c-myc mice with HCC; assay type: in vivo; conditions: peptide 4 mmol/kg i.v.; for doxorubicin level in the HCCs: doxorubicin 20 mg/kg iv 10 minutes later, tissues 30 minutes later; for levels of doxorubicin in the organs: doxorubicin 20 mg/kg iv, FIG. 2A
Description: as §1
Furthermore, the effect of iRGD on the tissue concentrations of intravenously applied doxorubicin, a tumor therapeutic agent that can be detected due to the inherent fluorescence in tissue sections and tissue extracts, in the TGFα/c-myc and in the HepG2 xenotransplant HCC mouse model was analyzed. […] The control peptide had no effects on the doxorubicin level in any of the tissues.
TGFα/c-myc mice with radiologically verified HCCs (A) or nude mice with subcutaneous HepG2 xenotransplants (B) were intravenously injected with 4 mmol/kg iRGD or control peptide (each in PBS), or treated with PBS alone, followed by a doxorubicin (20 mg/kg iv) injection 10 minutes later. The tissues were collected another 30 minutes later and stored, and the doxorubicin concentration was determined. The values are mean values±SD; n=5 to 6. Asterisks indicate a significant difference (**P<0.01; ***P<0.001).

HepG2 tumors = assay: Gd-DTPA-enhanced MRI with and without peptide in nude mice with HepG2 xenotransplants; assay type: in vivo
Method: (§2) HepG2- and Huh7 cells (ATCC and RIKEN BioResource Center) were cultivated in DMEM with 10% FBS and penicillin/streptomycin (Life Technologies). 5 million cells in 100 μL PBS were injected into the sides of NMRI Foxn1 nude mice (Harlan Laboratories B.V.). Four weeks later the mice were assigned to the test groups.
(§3) So as to determine the effect of iRGD on the Gd-DTPA-enhanced MRI in the HCC, TGFα/c mice with HCC according to a prior Gd-EOB-DTPA (Primovist)-enhanced MRI one week earlier, or nude mice with HepG2 or Huh7 tumors, were included in the experiments. The mice were anesthetized by way of intraperitoneal injection of ketamine (70 mg/kg body weight) and xylazine (10 mg/kg body weight), followed by a basal T1-weighted MRI. Directly thereafter, a Gd-DTPA-enhanced MRI was conducted (Haupenthal et al., 2012). Twelve to 24 hours later, either iRGD or the RGD control peptide was injected ([…] each via the tail vein), followed by a basal and a Gd-DTPA-enhanced MRI (Watcharin et al., 2015). For the quantitative analysis of the MRI data, the signal intensities in user defined “regions of interest” (ROI) were used (Korkusuz et al., 2013). ROIs were placed in the liver and in the tumor tissue. The changes in the signal intensities were ascertained by subtraction of the pre-contrast value from those after the administration of Gd-DTPA. […]

Huh7 xenotransplants [5] = assay: Evans blue accumulation after i.v. peptide in nude mice with Huh7 xenotransplants; assay type: in vivo, NMRI Foxn1 nude mice; conditions: subcutaneous Huh7 xenotransplants, peptide 4 mmol/kg i.v., p<0.001
Method: as §2
(§4) So as to examine whether the tumor-permeabilizing effect of iRGD also occurs in HCC nude mice tumor models, the effect of intravenously applied iRGD on the level of co-applied Evans blue in nude mice which had HepG2 or Huh7 xenotransplants was analyzed. iRGD effectuated an increase in the concentrations of co-applied Evans blue in HepG2-xenotransplanted and Huh-7-xenotransplanted tumors by a factor of 3.4 (p≤0.002) (in HepG2 tumors) and 2.6-fold in Huh7 tumors (p<0.001) compared to the corresponding tumors of nude mice injected with PBS and the control peptide (FIGS. 1B and C).
(§5) TGFα/c-myc mice with MRI-verified HCCs (A) or mice with subcutaneous HepG2 (B) or Huh7 xenotransplants (C) were intravenously injected with 4 mmol/kg iRGD or control peptide (each in PBS), or PBS was injected alone, followed by an injection of EB 5 minutes later. The tissues were harvested after another 30 minutes. The EB accumulation in the tissues was determined by way of photometry. The data involves mean values±SD; n=4 to 5. […]

4T1 tumor = assay: Gd-DTPA-enhanced MRI with and without peptide in syngeneic 4T1 breast cancer mouse model; assay type: in vivo; conditions: BALB/c mice, 4T1 cells in mammary gland no. 4; peptide 4 mmol/kg; p<0.05
Method: 4T1 cells (ATCC) were cultivated in RPMI 1640 medium with 10% FBS and penicillin/streptomycin (Life Technologies). BALB/c mice were injected with 2.5×10^4 4T1 cells into mammary gland no. 4 of the mouse, and the tumors were allowed to grow for two weeks.
Furthermore, it was examined to what extent iRGD also influences the MRI signal of the tumor in the Gd-DTPA-enhanced MRI in the syngeneic 4T1 breast cancer mouse model.
Effect of iRGD and the RGD control peptide on the increase in the signal intensity in the Gd-DTPA-enhanced MRI in the liver and in the 4T1 tumors in BALB/c mice. BALB/c mice were injected with 2.5×10^4 4T1 cells into mammary gland no. 4 of the mouse. Two weeks later, the mice were anesthetized, followed by a basal T1-weighted MRI, and a Gd-DTPA-enhanced MRI directly thereafter. 12 to 24 hours later, either iRGD or RGD control peptide (con. peptide) was injected (100 μL each via the tail vein, 4 mmol/kg) into the same animals, followed by a basal MRI and a Gd-DTPA-enhanced MRI. The data was quantitatively analyzed. Values are mean values±SD; n=6.

Huh7 xenotransplants [6] = assay: Gd-DTPA-enhanced MRI with and without peptide in nude mice with Huh7 xenotransplants; assay type: in vivo; conditions: p=0.0081
Method: as §2, §3

HepG2 xenotransplants [7] = assay: Evans blue accumulation after i.v. peptide in nude mice with HepG2 xenotransplants; assay type: in vivo, NMRI Foxn1 nude mice; conditions: subcutaneous HepG2 xenotransplants, peptide 4 mmol/kg i.v., p≤0.002
Method: as §2, §4, §5

| Compound | contrast of HCC tumors in the liver in Gd-DTPA-enhanced MRI (HCCs in TGFα/c-myc mice [1]) | doxorubicin level in the HCCs (HepG2 xenotransplants) (HepG2 xenotransplants [2]) | concentration of Evans blue in normal tissue (liver, kidney, spleen and lung) (HCCs in TGFα/c-myc mice [3]) | Evans blue quantity in the tumors compared to HCCs of mice injected with PBS or control peptide (HCCs in TGFα/c-myc mice [3]) | signal intensities in normal organs in Gd-DTPA-enhanced MRI (HCCs in TGFα/c-myc mice [1]) | doxorubicin level in the HCCs (HCCs in TGFα/c-myc mice [4]) | levels of doxorubicin in the organs (HCCs in TGFα/c-myc mice [4]) | signal intensity of the tumors in Gd-DTPA-enhanced MRI (HepG2) (HepG2 tumors; p=0.0311) | rise in signal intensity of the tumors in Gd-DTPA-enhanced MRI, other HCC mouse models (HepG2) (HepG2 tumors; stated for 'the other HCC mouse models') [fold] | increase in concentration of co-applied Evans blue in Huh7 tumors vs PBS and control peptide (Huh7 xenotransplants [5]) [fold] | MRI signal in the Gd-DTPA-enhanced MRI in the 4T1 tumor (4T1 tumor) | rise in signal intensity of the tumors in Gd-DTPA-enhanced MRI (Huh7) (Huh7 xenotransplants [6]) [fold] | increase in concentration of co-applied Evans blue in HepG2 tumors vs PBS and control peptide (HepG2 xenotransplants [7]) [fold] | increase of signal intensities in the tumors in Gd-DTPA-enhanced MRI vs RGD control peptide or PBS (HCCs in TGFα/c-myc mice [1]; peptide 4 mmol/kg via tail vein, quantitative densitometric analysis, n=12) [fold] |
| --- | --- | --- | --- | --- | --- | --- | --- | --- | --- | --- | --- | --- | --- | --- |
| O=C([O-])CN(CCN(CC(=O)[O-])CC(=O)O)CCN(CC(=O)[O-])CC(=O)O.[Gd+3] [Gd-DTPA, reference compound] | highly negative contrasts |  |  |  |  |  |  |  |  |  |  |  |  |  |
| CRGDDGPKC [RGD control peptide, RGD control peptide without a CendR motif; acquired from GenScript, reference compound] | negatively contrasted | no effects | had no impact | had no effect | no effects | no effects | no effects |  |  |  |  |  |  |  |
| CRGDKGPDC [iRGD] | contrasting positively | increase in the doxorubicin level | had no impact | three-fold increase | no effects | increase in the doxorubicin level | no effects | rise in the signal intensity | ≤ 2 | 2.6 | significant increase in the MRI signal | 1.5 | 3.4 | 2 |
